From PubChem BioAssay AID1963424 (Molecular Pharmacology Branch, DTP, NCI, 2024)

Tested on: 327498-153-R-J2-PDC complex spheroid growth, % test/control
Assay: Anticancer human tumor 327498-153-R-J2-PDC patient-derived uterine carcinosarcoma cell line growth inhibition [Asc]
Settings: for IC50: curve of first compound; for viability, T/C: stronger effect = lower value
Method in brief: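 Spheroid model: tumor line + HUVEC + hMSC. Single agents and combinations; top conc. at/near clinical Cmax (10 microM if undetermined), half-log dilutions. DMSO stocks at 800-fold test concentration.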
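Note: spheroids exposed to compound for 7 days after 3 days of growth.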
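Throughout, for viability, T/C: 100% = DMSO vehicle control wells.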

Compound Cc1nc(N2CCC3(CC2)COC(C)C3N)c(CO)nc1Sc1ccnc(N)c1Cl (stereo not given) + CCN1C(C(=O)NC23CCC(C(=O)O)(CC2)CC3)C(c2cccc(Cl)c2F)C2(C(=O)Nc3cc(Cl)ccc32)C12CCCCC2 has an IC50 (second compound 0.03 µM) of 242 nM, an IC50 (second compound 0.0949 µM) of 48.4 nM and an IC50 (second compound 0.3 µM) of less than 9.49 nM. It also gave an IC50 (second compound 0.949 µM) of less than 9.49 nM, an IC50 (second compound 3 µM) of less than 9.49 nM and a viability, T/C (second compound 0.03 µM, first compound 0.00949 µM) of 79.9%. It also gave a viability, T/C (second compound 0.03 µM, first compound 0.03 µM) of 74.8%, a viability, T/C (second compound 0.03 µM, first compound 0.0949 µM) of 64.1% and a viability, T/C (second compound 0.03 µM, first compound 0.3 µM) of 44%. It also gave a viability, T/C (second compound 0.03 µM, first compound 0.949 µM) of 41%, a viability, T/C (second compound 0.03 µM, first compound 3 µM) of 30.3% and a viability, T/C (second compound 0.0949 µM, first compound 0.00949 µM) of 57%. It also gave a viability, T/C (second compound 0.0949 µM, first compound 0.03 µM) of 58%, a viability, T/C (second compound 0.0949 µM, first compound 0.0949 µM) of 41.3% and a viability, T/C (second compound 0.0949 µM, first compound 0.3 µM) of 27.8%. The viability, T/C (second compound 0.0949 µM, first compound 0.949 µM) was 22.2%, the viability, T/C (second compound 0.0949 µM, first compound 3 µM) was 15.7% and the viability, T/C (second compound 0.3 µM, first compound 0.00949 µM) was 30.7%. The viability, T/C (second compound 0.3 µM, first compound 0.03 µM) was 24.3%, the viability, T/C (second compound 0.3 µM, first compound 0.0949 µM) was 13.7% and the viability, T/C (second compound 0.3 µM, first compound 0.3 µM) was 12.3%. It also gave a viability, T/C (second compound 0.3 µM, first compound 0.949 µM) of 8.52%, a viability, T/C (second compound 0.3 µM, first compound 3 µM) of 6.36% and a viability, T/C (second compound 0.949 µM, first compound 0.00949 µM) of 6.38%. It also gave a viability, T/C (second compound 0.949 µM, first compound 0.03 µM) of 6.83%, a viability, T/C (second compound 0.949 µM, first compound 0.0949 µM) of 2.73% and a viability, T/C (second compound 0.949 µM, first compound 0.3 µM) of 11.8%. For the same compound, the viability, T/C (second compound 0.949 µM, first compound 0.949 µM) was 2.12%, the viability, T/C (second compound 0.949 µM, first compound 3 µM) was 2.01% and the viability, T/C (second compound 3 µM, first compound 0.00949 µM) was 2.07%. For the same compound, the viability, T/C (second compound 3 µM, first compound 0.03 µM) was 2.17%, the viability, T/C (second compound 3 µM, first compound 0.0949 µM) was 2.3% and the viability, T/C (second compound 3 µM, first compound 0.3 µM) was 2.57%. The viability, T/C (second compound 3 µM, first compound 0.949 µM) was 0.76% and the viability, T/C (second compound 3 µM, first compound 3 µM) was 0.83%.
